Each molecule was assayed against Rho-associated protein kinase 2 (Homo sapiens, UniProt O75116) (assay: Inhibition of N-terminal His10-StrepII tagged human ROCK2 catalytic domain (1 to 553 residues) expressed in Sf9 insect cells by HTRF assay).
Sequence of Rho-associated protein kinase 2 (O75116 whole entry, the tested form may be a part): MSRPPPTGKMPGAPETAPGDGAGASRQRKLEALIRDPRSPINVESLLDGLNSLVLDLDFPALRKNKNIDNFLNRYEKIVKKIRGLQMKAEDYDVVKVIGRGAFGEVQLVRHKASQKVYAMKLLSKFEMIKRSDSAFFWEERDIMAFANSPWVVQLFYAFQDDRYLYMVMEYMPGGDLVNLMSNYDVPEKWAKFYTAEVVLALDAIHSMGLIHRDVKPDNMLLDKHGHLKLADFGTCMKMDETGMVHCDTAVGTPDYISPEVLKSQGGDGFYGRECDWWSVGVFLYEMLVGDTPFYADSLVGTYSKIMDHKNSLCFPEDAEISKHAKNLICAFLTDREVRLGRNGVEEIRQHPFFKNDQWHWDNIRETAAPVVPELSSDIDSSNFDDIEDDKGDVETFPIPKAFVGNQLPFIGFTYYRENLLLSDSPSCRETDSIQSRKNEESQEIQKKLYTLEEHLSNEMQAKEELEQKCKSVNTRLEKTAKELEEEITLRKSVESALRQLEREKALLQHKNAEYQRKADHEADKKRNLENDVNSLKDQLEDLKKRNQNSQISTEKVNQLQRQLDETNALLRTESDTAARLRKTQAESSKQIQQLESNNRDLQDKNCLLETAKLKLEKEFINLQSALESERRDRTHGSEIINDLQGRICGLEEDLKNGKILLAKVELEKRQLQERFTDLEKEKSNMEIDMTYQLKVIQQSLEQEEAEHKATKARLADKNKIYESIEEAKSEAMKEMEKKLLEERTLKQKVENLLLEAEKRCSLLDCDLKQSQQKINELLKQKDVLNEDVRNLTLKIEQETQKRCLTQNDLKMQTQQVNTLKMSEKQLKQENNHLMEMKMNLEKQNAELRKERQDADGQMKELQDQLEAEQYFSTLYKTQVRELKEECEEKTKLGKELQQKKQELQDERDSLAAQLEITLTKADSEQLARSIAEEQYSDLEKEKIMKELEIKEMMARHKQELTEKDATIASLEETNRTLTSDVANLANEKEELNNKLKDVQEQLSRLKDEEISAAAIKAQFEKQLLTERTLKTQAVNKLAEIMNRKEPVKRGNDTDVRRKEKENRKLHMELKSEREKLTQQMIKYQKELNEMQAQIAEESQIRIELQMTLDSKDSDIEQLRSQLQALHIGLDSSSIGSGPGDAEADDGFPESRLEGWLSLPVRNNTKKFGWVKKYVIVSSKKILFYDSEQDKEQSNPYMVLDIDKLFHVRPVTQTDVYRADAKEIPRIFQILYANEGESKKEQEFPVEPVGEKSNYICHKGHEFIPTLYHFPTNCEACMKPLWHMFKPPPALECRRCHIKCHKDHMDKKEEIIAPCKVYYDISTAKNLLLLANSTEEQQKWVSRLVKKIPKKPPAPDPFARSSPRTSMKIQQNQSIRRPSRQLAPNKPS
In the case of `O=C1NCc2c1c1c3ccc(O)cc3[nH]c1c1[nH]c3ccccc3c21`, the IC50 is reported as 23 nM.
`COC1NC(=O)c2c1c1c3ccccc3[nH]c1c1[nH]c3ccccc3c21` (stereo not drawn) showed an IC50 of over 500 nM.
With `COc1ccc2[nH]c3c4[nH]c5ccc(O)cc5c4c4c(c3c2c1)C(=O)NC4` the IC50 was 460 nM.
Molecule `COC(=O)[C@]1(O)C[C@H]2O[C@]1(C)n1c3ccccc3c3c4c(c5c6ccccc6n2c5c31)C(=O)NC4` has an IC50 of over 500 nM.
`O=C1NC(O)c2c1c1c3ccccc3[nH]c1c1[nH]c3ccccc3c21` (stereo not drawn) showed an IC50 of over 500 nM.
`C[C@@H]1O[C@@H](n2c3ccccc3c3c4c(c5c6ccccc6[nH]c5c32)C(=O)NC4=O)[C@H](O)[C@H](O)[C@H]1O` showed an IC50 of over 500 nM.
With `COc1ccc2[nH]c3c4[nH]c5ccc(OC)cc5c4c4c(c3c2c1)C(=O)NC4=O` [GW296115X] the IC50 was over 500 nM.
For `C[C@@H]1O[C@@H]2C[C@](O)([C@H]1O)n1c3ccccc3c3c4c(c5c6ccccc6n2c5c31)C(=O)NC4`, the IC50 was over 500 nM.
With `O=C1NC(=O)c2c1c1c3ccccc3[nH]c1c1[nH]c3cc(O)ccc3c21` the IC50 was 530 nM.
Work on `CO[C@@H]1[C@H](NC(C)=O)C[C@H]2O[C@]1(C)n1c3ccccc3c3c4c(c5c6ccccc6n2c5c31)C(=O)NC4` yielded an IC50 of 340 nM.
Molecule `CO[C@@H]1/C(=N/O)C[C@H]2O[C@]1(C)n1c3ccccc3c3c4c(c5c6ccccc6n2c5c31)C(=O)NC4` has an IC50 of over 500 nM.
`CO[C@@H]1[C@@H](O)[C@@H](O)[C@H]2O[C@]1(C)n1c3ccccc3c3c4c(c5c6ccccc6n2c5c31)C(=O)N[C@@H]4O` was tested, and the IC50 was over 500 nM.
Work on `Cc1ccc2[nH]c3c4[nH]c5ccccc5c4c4c(c3c2c1)CNC4=O` yielded an IC50 of over 500 nM.
In the case of `COC(=O)c1cccc2c1NC1(C[C@H]3O[C@]1(C)n1c4ccccc4c4c5c(c6c7ccccc7n3c6c41)C(=O)NC5)C(=O)O2` (stereo partly drawn), the IC50 is reported as over 500 nM.
Work on `O=C1NC(=O)c2c1c1c3ccccc3[nH]c1c1[nH]c3ccccc3c21` [STAUROSPORINE AGLYCON] yielded an IC50 of over 500 nM.
In the case of `CC(=O)N[C@H]1C[C@H](n2c3ccccc3c3c4c(c5c6ccccc6[nH]c5c32)CNC4=O)O[C@@H](C)[C@@H]1O`, the IC50 is reported as 210 nM.
For `CO[C@@H]1[C@H](O)[C@H](O)[C@H](C)O[C@H]1n1c2ccc(O)cc2c2c3c(c4c5ccccc5[nH]c4c21)CNC3=O`, the IC50 was over 500 nM.
Molecule `CO[C@@H]1[C@H](N(C)C(C)=O)C[C@H]2O[C@]1(C)n1c3ccccc3c3c4c(c5c6ccccc6n2c5c31)C(=O)NC4=O` has an IC50 of 2070 nM.
For `COc1ccc2c(c1)c1c3c(c4c5ccccc5n(C)c4c1n2C)C(=O)N(C)C3=O`, the IC50 was over 500 nM.
With `O=C1NC(=O)c2c1c1c3ccccc3[nH]c1c1[nH]c3c(O)cccc3c21` the IC50 was over 500 nM.
`COC(=O)[C@@]1(OC)C[C@H]2O[C@]1(C)n1c3ccccc3c3c4c(c5c6ccccc6n2c5c31)C(=O)NC4` gave an IC50 of 330 nM.
With `CC(C)(C)c1ccc2[nH]c3c4[nH]c5ccccc5c4c4c(c3c2c1)C(=O)NC4` the IC50 was over 500 nM.
For `C[C@@H]1O[C@@H](n2c3ccccc3c3c4c(c5c6ccccc6[nH]c5c32)CNC4=O)C[C@@H](N)[C@H]1OC(O)C1CO1` (stereo partly drawn), the IC50 was 140 nM.
In the case of `C[C@@H]1O[C@@H]2C[C@](O)([C@H]1O)n1c3ccccc3c3c4c(c5c6cc(O)ccc6n2c5c31)C(=O)NC4`, the IC50 is reported as 210 nM.
`CC(=O)N[C@H]1C[C@H]2O[C@@](C)([C@@H]1O)n1c3ccccc3c3c4c(c5c6ccccc6n2c5c31)C(=O)NC4` gave an IC50 of 60 nM.
`C[C@@H]1O[C@@H](n2c3ccccc3c3c4c(c5c6ccccc6[nH]c5c32)[C@H](O)NC4=O)[C@H](O)[C@H](O)[C@H]1O` showed an IC50 of over 500 nM.
For `O=C1NCc2c1c1c3ccccc3[nH]c1c1[nH]c3ccccc3c21` [STAUROSPORINONE], the IC50 was over 500 nM.
`C[C@]12O[C@H](C[C@@H](N)[C@H]1O)n1c3ccccc3c3c4c(c5c6ccccc6n2c5c31)CNC4=O` showed an IC50 of 35 nM.
In the case of `CO[C@@H]1C(C)(O)O[C@@H]2C[C@@]1(OC)n1c3ccccc3c3c4c(c5c6ccccc6n2c5c31)C(=O)NC4` (stereo partly drawn), the IC50 is reported as over 500 nM.
`COC1=C(C)O[C@@H]2C[C@@]1(OC)n1c3ccccc3c3c4c(c5c6ccccc6n2c5c31)C(=O)NC4` showed an IC50 of over 500 nM.
`COC1NC(=O)c2c1c1c3ccccc3[nH]c1c1[nH]c3ccc(O)cc3c21` (stereo not drawn) gave an IC50 of 320 nM.
`C[C@]12O[C@H](C[C@@H](N)[C@H]1O)n1c3ccccc3c3c4c(c5c6ccccc6n2c5c31)C(=O)NC4=O` was tested, and the IC50 was 360 nM.
With `CO[C@@H]1[C@@H](O)[C@@H](O)[C@H]2O[C@]1(C)n1c3ccccc3c3c4c(c5c6ccccc6n2c5c31)C(=O)NC4=O` the IC50 was over 500 nM.
In the case of `CC1NC(=O)c2c1c1c3ccccc3[nH]c1c1[nH]c3ccccc3c21` (stereo not drawn), the IC50 is reported as 8220 nM.
`CO[C@H]1C(=O)C[C@H]2O[C@]1(C)n1c3ccccc3c3c4c(c5c6ccccc6n2c5c31)C(=O)NC4` was tested, and the IC50 was over 500 nM.
`C[C@@H]1O[C@@H](n2c3ccccc3c3c4c(c5c6ccccc6[nH]c5c32)CNC4=O)C[C@@H](NC=O)[C@H]1O` was tested, and the IC50 was over 500 nM.
Work on `CO[C@@H]1[C@H](N(C)C=O)C[C@H]2O[C@]1(C)n1c3ccccc3c3c4c(c5c6ccccc6n2c5c31)C(=O)NC4` yielded an IC50 of 140 nM.
For `CC(=O)N[C@@H]1C[C@H](n2c3ccccc3c3c4c(c5c6ccccc6[nH]c5c32)CNC4=O)O[C@@H](C)[C@@H]1O`, the IC50 was 2700 nM.
`COC(=O)[C@@]1(O)C[C@H]2O[C@]1(C)n1c3ccccc3c3c4c(c5c6ccccc6n2c5c31)C(=O)NC4` [K-252A] showed an IC50 of over 500 nM.
`CO[C@H]1NC(=O)c2c1c1c3ccccc3n3c1c1c2c2ccccc2n1[C@@H]1O[C@@]3(C)[C@H](OC)[C@@H](O)[C@H]1O` was tested, and the IC50 was over 500 nM.
`CNC(=O)C[C@H]1O[C@@](C)(C(=O)OC)n2c3ccccc3c3c4c(c5c6ccccc6n1c5c32)C(=O)NC4` was tested, and the IC50 was 2720 nM.
`CO[C@@H]1C(=O)C[C@H]2O[C@]1(C)n1c3ccccc3c3c4c(c5c6ccccc6n2c5c31)C(=O)NC4` gave an IC50 of over 500 nM.
`O=C1NCc2c1c1c3cccc(O)c3[nH]c1c1[nH]c3ccccc3c21` was tested, and the IC50 was 260 nM.
Molecule `C[C@]12O[C@H](C[C@@H](O)[C@H]1O)n1c3ccccc3c3c4c(c5c6ccccc6n2c5c31)CNC4=O` has an IC50 of 2880 nM.
`CC(C)(C)c1ccc2[nH]c3c4[nH]c5ccccc5c4c4c(c3c2c1)C(=O)NC4=O` was tested, and the IC50 was over 500 nM.
`CN[C@@H]1C[C@H]2O[C@@](C)([C@@H]1OC)n1c3ccccc3c3c4c(c5c6ccccc6n2c5c31)C(=O)NC4=O` (stereo in doubt; 14) showed an IC50 of 310 nM.
Work on `CO[C@@H]1[C@@H](O)C[C@H]2O[C@]1(C)n1c3ccccc3c3c4c(c5c6ccccc6n2c5c31)C(=O)NC4` yielded an IC50 of 720 nM.
With `Cc1ccc2[nH]c3c4[nH]c5ccccc5c4c4c(c3c2c1)C(=O)NC4` the IC50 was 550 nM.
`COc1ccc2[nH]c3c4[nH]c5ccccc5c4c4c(c3c2c1)C(=O)NC4` showed an IC50 of over 500 nM.
`O=C1NCc2c1c1c3ccccc3[nH]c1c1[nH]c3cc(O)ccc3c21` showed an IC50 of 200 nM.
Molecule `CO[C@@H]1[C@H](N)C[C@H]2O[C@]1(C)n1c3ccccc3c3c4c(c5c6ccccc6n2c5c31)C(=O)NC4=O` has an IC50 of 360 nM.
`C[C@@H]1O[C@@H](n2c3ccc(O)cc3c3c4c(c5c6ccccc6[nH]c5c32)CNC4=O)[C@H](O)[C@H](O)[C@H]1O` gave an IC50 of 76 nM.
Molecule `COc1ccc2[nH]c3c4[nH]c5ccc(OC)cc5c4c4c(c3c2c1)CNC4=O` has an IC50 of over 500 nM.
`CO[C@@H]1[C@H](NC=O)C[C@H]2O[C@]1(C)n1c3ccccc3c3c4c(c5c6ccccc6n2c5c31)C(=O)NC4` was tested, and the IC50 was over 500 nM.
Molecule `COc1ccc2[nH]c3c4[nH]c5ccc(O)cc5c4c4c(c3c2c1)C(=O)NC4=O` has an IC50 of 110 nM.
With `O=C1NCc2c1c1c3cc(O)ccc3[nH]c1c1[nH]c3ccc(O)cc3c21` the IC50 was 3 nM.
`COc1cc(/C=C(/C(N)=O)n2c3ccccc3c3c4c(c5c6ccccc6[nH]c5c32)CNC4=O)ccc1O` gave an IC50 of 2120 nM.
In the case of `C[C@H]1O[C@@H]2C[C@](O)([C@@H]1O)n1c3ccccc3c3c4c(c5c6ccccc6n2c5c31)C(=O)NC4`, the IC50 is reported as over 500 nM.
For `COc1ccc2[nH]c3c4[nH]c5ccc(O)cc5c4c4c(c3c2c1)CNC4=O`, the IC50 was 120 nM.
Work on `CN[C@]1(C(=O)OC)C[C@H]2O[C@]1(C)n1c3ccccc3c3c4c(c5c6ccccc6n2c5c31)C(=O)NC4` yielded an IC50 of over 500 nM.
Molecule `CO[C@@H]1[C@H](NC(=O)C(=O)c2c[nH]c3ccccc23)C[C@H]2O[C@]1(C)n1c3ccccc3c3c4c(c5c6ccccc6n2c5c31)C(=O)NC4` has an IC50 of 4780 nM.
In the case of `CO[C@H]1[C@@H](N2CC[C@@H](O)C2=O)C[C@H]2O[C@@]1(C)n1c3ccccc3c3c4c(c5c6ccccc6n2c5c31)C(=O)NC4` (racemic), the IC50 is reported as 260 nM.
`C[C@@H]1O[C@@H](n2c3ccccc3c3c4c(c5c6ccccc6[nH]c5c32)C(=O)NC4=O)C[C@@H](NC=O)[C@H]1O` showed an IC50 of 250 nM.
Work on `COc1ccc2[nH]c3c4[nH]c5ccccc5c4c4c(c3c2c1)CNC4=O` yielded an IC50 of over 500 nM.
Work on `Cn1c2ccccc2c2c3c(c4c5ccccc5[nH]c4c21)C(=O)NC3` yielded an IC50 of 550 nM.
With `CO[C@@H]1[C@H](O)C[C@H]2O[C@]1(C)n1c3ccccc3c3c4c(c5c6ccccc6n2c5c31)C(=O)NC4` the IC50 was 8000 nM.
`CO[C@@H]1[C@@H](O)[C@@H](O)[C@H]2O[C@]1(C)n1c3ccccc3c3c4c(c5c6ccccc6n2c5c31)C(=O)N[C@H]4O` gave an IC50 of over 500 nM.
Work on `C[C@H]1O[C@@H]2C[C@](O)([C@H]1O)n1c3ccccc3c3c4c(c5c6cc(O)ccc6n2c5c31)C(=O)NC4` yielded an IC50 of 120 nM.
Molecule `O=C1NC(=O)c2c1c1c3ccccc3[nH]c1c1[nH]c3ccc(O)cc3c21` has an IC50 of 670 nM.
Molecule `C[C@]12O[C@H](C[C@]1(O)C(=O)O)n1c3ccccc3c3c4c(c5c6ccccc6n2c5c31)C(=O)NC4=O` has an IC50 of 300 nM.
Molecule `CO[C@@H]1[C@@H](O)[C@@H](O)[C@H]2O[C@]1(C)n1c3ccccc3c3c4c(c5c6ccccc6n2c5c31)C(=O)N[C@H]4OC` has an IC50 of over 500 nM.
Molecule `CO[C@@H]1[C@@H](O)[C@@H](O)[C@H]2O[C@]1(C)n1c3ccccc3c3c4c(c5c6ccccc6n2c5c31)C(=O)NC4` has an IC50 of 690 nM.
`O=C1NCc2c1c1c3ccccc3[nH]c1c1[nH]c3c(O)cccc3c21` was tested, and the IC50 was over 500 nM.
Work on `CC(C)(C)c1ccc2[nH]c3c4[nH]c5ccccc5c4c4c(c3c2c1)CNC4=O` yielded an IC50 of over 500 nM.
For `Cc1ccc2[nH]c3c4[nH]c5ccccc5c4c4c(c3c2c1)C(=O)NC4=O`, the IC50 was over 500 nM.
`CO[C@H]1NC(=O)c2c1c1c3ccccc3[nH]c1c1c2c2ccccc2n1[C@@H]1O[C@@H](C)[C@H](O)[C@@H](O)[C@H]1O` gave an IC50 of over 500 nM.
In the case of `O=C1NC(=O)c2c1c1c3cc(O)ccc3[nH]c1c1[nH]c3ccc(O)cc3c21`, the IC50 is reported as 7 nM.
`CC(=O)N[C@@H]1C[C@H](n2c3ccccc3c3c4c(c5c6ccccc6[nH]c5c32)C(=O)NC4=O)O[C@@H](C)[C@@H]1O` showed an IC50 of 2240 nM.

Source: ChEMBL document CHEMBL5385876, “Discovery of unglycosylated indolocarbazoles as ROCK2 isoform-selective inhibitors for the treatment of breast cancer metastasis” (Eur J Med Chem, 2023)
